Source: BindingDB's records for doi:10.1021/acs.jnatprod.4c00082 (Johannes Gutenberg-University, 2024)

These molecules were tested against T1, Signal transducer and activator of transcription 6 (Homo sapiens, UniProt P42226) (assay: Inhibition of IL-4 induced STAT6 signaling in human HepG2 cells harboring pRL-EF1alpha, pGL3-TK-7xN4 and TOPO-Stat6 plasmid assessed as luciferase activity incubated for 24 hrs).
T1 sequence (P42226 whole entry): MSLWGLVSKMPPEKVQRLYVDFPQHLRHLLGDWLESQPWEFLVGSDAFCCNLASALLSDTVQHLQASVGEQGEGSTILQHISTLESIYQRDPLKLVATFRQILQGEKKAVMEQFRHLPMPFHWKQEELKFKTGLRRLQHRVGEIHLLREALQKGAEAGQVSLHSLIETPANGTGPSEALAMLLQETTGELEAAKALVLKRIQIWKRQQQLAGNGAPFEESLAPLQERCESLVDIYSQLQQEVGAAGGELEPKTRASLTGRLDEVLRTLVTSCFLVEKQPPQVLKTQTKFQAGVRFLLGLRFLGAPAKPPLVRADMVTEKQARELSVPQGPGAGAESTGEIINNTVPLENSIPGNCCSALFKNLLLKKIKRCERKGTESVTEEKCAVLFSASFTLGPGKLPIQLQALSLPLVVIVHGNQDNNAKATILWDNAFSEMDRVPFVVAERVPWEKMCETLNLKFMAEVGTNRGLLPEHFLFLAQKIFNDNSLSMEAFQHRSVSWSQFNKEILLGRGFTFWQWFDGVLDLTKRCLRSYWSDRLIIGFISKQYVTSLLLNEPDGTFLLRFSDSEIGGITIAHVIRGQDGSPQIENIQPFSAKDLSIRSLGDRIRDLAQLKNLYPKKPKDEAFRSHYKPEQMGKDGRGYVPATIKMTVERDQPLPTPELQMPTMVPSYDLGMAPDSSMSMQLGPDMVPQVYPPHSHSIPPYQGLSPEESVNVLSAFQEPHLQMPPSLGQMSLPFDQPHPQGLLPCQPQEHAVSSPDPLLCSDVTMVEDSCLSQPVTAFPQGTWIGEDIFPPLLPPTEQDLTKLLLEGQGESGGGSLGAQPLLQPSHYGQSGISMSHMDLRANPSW
In the case of `C/C1=C\C[C@H](O)[C@H](C)[C@H](C)OC(=O)Cc2c(Cl)c(O)cc(O)c2C1=O`, the IC50 is reported as 200 nM.
With `C/C1=C/C[C@@H](O)[C@H](C)[C@@H](C)OC(=O)Cc2c(Cl)c(O)cc(O)c2C1=O` the IC50 was 72 nM.
Molecule `C/C1=C/C[C@H](O)[C@H](C)[C@@H](C)OC(=O)Cc2c(Cl)c(O)cc(O)c2C1=O` has an IC50 of 64 nM.
With `C/C1=C\C[C@H](O)[C@H](C)[C@@H](C)OC(=O)Cc2c(Cl)c(O)cc(O)c2C1=O` the IC50 was 50 nM.
`C/C1=C\C[C@@H](O)[C@H](C)[C@H](C)OC(=O)Cc2c(Cl)c(O)cc(O)c2C1=O` showed an IC50 of 1000 nM.
